From patent US6936628B2, “Oral administration of epothilones” (Bristol-Myers Squibb Company, priority 2002, dated 2005) come the findings set out here.

Read-outs that look alike come from different tables or passages of the source.

The conditions of data set [1]: rat, in vivo.
Another data set concerns the target T1, CYP1A2 (Homo sapiens, UniProt P05177).
T1 sequence (P05177 1-516): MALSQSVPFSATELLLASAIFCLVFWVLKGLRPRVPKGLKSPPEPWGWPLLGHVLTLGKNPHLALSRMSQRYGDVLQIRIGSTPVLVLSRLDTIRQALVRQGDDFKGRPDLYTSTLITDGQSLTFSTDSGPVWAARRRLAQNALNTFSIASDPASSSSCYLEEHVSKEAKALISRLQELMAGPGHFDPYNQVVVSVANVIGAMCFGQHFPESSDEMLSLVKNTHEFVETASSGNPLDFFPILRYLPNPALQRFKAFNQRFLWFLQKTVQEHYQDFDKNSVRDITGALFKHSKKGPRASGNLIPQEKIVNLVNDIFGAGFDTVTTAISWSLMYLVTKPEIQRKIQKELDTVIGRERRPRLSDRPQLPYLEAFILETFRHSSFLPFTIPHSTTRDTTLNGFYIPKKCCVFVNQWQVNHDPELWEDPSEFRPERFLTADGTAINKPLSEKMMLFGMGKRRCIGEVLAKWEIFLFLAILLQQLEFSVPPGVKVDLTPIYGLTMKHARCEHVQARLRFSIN
Briefly: Inhibition of human CYP enzymes, CYP1A2.

The next data set in a line: Liver S9 incubation, rat. As to conditions: rat liver S9, 20 μM.
Data set [2] is described as follows: Single dose IV toxicokinetics in rats. It counts as in vivo. The conditions noted are these: both sexes, rat, plasma, IV 1, 5 and 7 mg/kg, across doses and sex. The procedure: The single dose IV toxicokinetics of Compound A in rats were evaluated as a part of a toxicology study. Compound A, prepared in 50 mM citrate buffer (pH 5), was given intravenously (over approximately 1-2 min period) at doses of 1, 5, and 7 mg/kg to 3 rats/gender/dose. Blood samples were collected at 3, 15, and 30 minutes, and at 1, 3, 6, 12, and 24 h after dosing. Plasma concentrations of Compound A were determined using a validated LC/MS/MS assay with a standard curve range of 2-500 ng/mL. […] Systemic exposures were reasonably similar between male and female rats. […] Furthermore, there appeared to be no differences in the toxicokinetics of Compound A between male and female rats.

The nature of the next data set: Pharmacokinetics in mice. It counts as in vivo. The conditions noted are these: nude mice. The protocol:
The pharmacokinetics of Compound A was evaluated in nude mice after IV (5 mg/kg) and oral (15 mg/kg) administration (n=15 mice/group). Compound A was dissolved in a mixture of cremophor:ethanol:water (10:10:80) and cremophor:ethanol:phosphate buffer, pH 8 (10:10:80) for the preparation of IV and oral doses, respectively. Plasma concentrations of Compound A were determined at 10 and 45 min, and 2, 4, and 6 hours postdose from 3 mice/time point/group. Composite plasma concentration-time profiles were constructed for pharmacokinetic analysis. […] The VSS values was 38 L/kg which is greater than total body water of about 0.7 L/kg, indicating significant extravascular distribution. The T-HALF value, both after IV and oral administration, was 3.3 h.

Data set [3] is described as follows: Effects of formulation on antitumor efficacy. It counts as in vivo.

As usually defined, the IC50 is the midpoint of a concentration-inhibition curve. The AUC is the area under the concentration-time curve, a measure of exposure. A lower AUC goes with low exposure. By Cmax is commonly meant the highest concentration seen after dosing. For orientation: bioavailability means the share of a dose that reaches the circulation, judged against a reference dose that is usually intravenous. As for `C/C(=C\c1csc(CN)n1)[C@@H]1C[C@@H]2O[C@]2(C)CCC[C@H](C)[C@H](O)[C@@H](C)C(=O)C(C)(C)[C@@H](O)CC(=O)O1` (relative stereo) [Compound A, [1S-[1R*,3R*(E),7R*,10S*,11R*,12R*,16S*]]-3-[2-[2-(aminomethyl)-4-thiazolyl]-1-methylethenyl]-7,11-dihydroxy-8,8,10,12,16-pentamethyl-4,17-dioxabicyclo[14.1.0]heptadecane-5,9-dione], the “drug related material in bile” value in data set [1] was “No drug related material was detected”. The “percent of the dose recovered in the urine as parent” value in data set [1] (iv, 2 mg/kg) is recorded as “approximately 18%”; in data set [1] (po, 8 mg/kg), around 2.4%. In addition, the IC50 against CYP1A2 was above 70 µM. The “rate of oxidative metabolism” value in “Liver S9 incubation, rat” was found to be 0.04. The AUC in data set [2] lay in the range of 159 to 1940 ng·h/mL. The same molecule came in with a Cmax in data set [2] of 183 to 3910 ng/mL. In “Pharmacokinetics in mice” (mouse, plasma, IV 5 mg/kg, read-out: VSS), the Vd worked out at 38 L/kg. Besides, the bioavailability in the data set “Pharmacokinetics in mice” (mouse, plasma, oral 15 mg/kg vs IV 5 mg/kg, read-out: absolute oral bioavailability) stood at 21%. In the data set “Pharmacokinetics in mice” (IV 5 mg/kg), this molecule registered a CLT of 152 mL/min/kg. In addition, the T-HALF in “Pharmacokinetics in mice” (IV 5 mg/kg) and in the data set “Pharmacokinetics in mice” (oral 15 mg/kg) was 3.3 h in each case. Moreover, the LCK is 3.3 in data set [3] (formulated in cremophor/ethanol/water (10:10:80, v/v/v)) and 3.4 in data set [3] (formulated in sodium acetate buffer (30 mM, pH 5.0)).
